# Measured values as given in US12577226B2, “Compounds for treating Huntington's disease” (PTC THERAPEUTICS, INC., priority 2019, dated 2026).
# Tested on: Endogenous Huntingtin Protein (capture with MW1 (expanded polyglutamine) or MAB2166 antibody)
# Test: Endogenous Huntingtin Protein Assay (ELISA-based Meso Scale Discovery electrochemiluminescence assay)
# Format: cell-based
# Conditions: MSD electrochemiluminescence platform
# Protocol: Compounds of Formula (I), Formula (II), or Formula (III) were tested using the Meso Scale Discovery (MSD) Assay provided in International Application No. PCT/US2016/066042, filed on Dec. 11, 2016 and claiming priority to U.S. Provisional Application U.S. 62/265,652 filed on Dec. 10, 2015, the entire contents of which are incorporated herein by reference.
# The Endogenous Huntingtin Protein assay used in Example 1 was developed using the ELISA-based MSD electrochemiluminescence assay platform.
# Meso Scale Discovery (MSD) 96-well or 384-well plates were coated overnight at 4° C. with MW1 (expanded polyglutamine) or MAB2166 monoclonal antibody (for capture) at a concentration of 1 μg/mL in PBS (30 μL per well). Plates were then washed three times with 300 μL wash buffer (0.05% Tween-20 in PBS) and blocked (100 μL blocking buffer; 5% BSA in PBS) for 4-5 hours at room temperature with rotational shaking and then washed three times with wash buffer.
# Samples (25 μL) were transferred to the antibody-coated MSD plate and incubated overnight at 4° C. After removal of the lysates, the plate was washed three times with wash buffer, and 25 μL of #5656S (Cell signaling; rabbit monoclonal) secondary antibody (diluted to 0.25 μg/mL in 0.05% Tween-20 in blocking buffer) was added to each well and incubated with shaking for 1 Hour at room temperature. Following incubation with the secondary antibody, the wells were rinsed with wash buffer after which 25 μL of goat anti-rabbit SULFO TAG secondary detection antibody (required aspect of the MSD system) (diluted to 0.25 μg/mL in 0.05% Tween-20 in blocking buffer) was added to each well and incubated with shaking for 1 hour at room temperature. After rinsing three times with wash buffer, 150 μL of read buffer T with surfactant (MSD) were added to each empty well, and the plate was imaged on a SI 6000 imager (MSD) according to manufacturers' instructions provided for 96- or 384-well plates.
row,Substance,IC50
1,"2-(3-{[(3R,4R)-3-fluoro-2,2,6,6-tetramethylpiperidin-4-yl]amino}-1,2,4-triazin-6-yl)-5-[1-(^2H3)methyl-1H-pyrazol-4-yl]pyridin-3-ol and 2-(3-{[(3S,4S)-3-fluoro-2,2,6,6-tetramethylpiperidin-4-yl]amino}-1,2,4-triazin-6-yl)-5-[1-(^2H3)methyl-1H-pyrazol-4-yl]pyridin-3-ol [Compound 140]",≤ 100 nM
2,"2-(3-{[(3S,4S)-3-fluoro-2,2,6,6-tetramethylpiperidin-4-yl]amino}-1,2,4-triazin-6-yl)-5-(1H-pyrazol-4-yl)pyridin-3-ol and 2-(3-{[(3R,4R)-3-fluoro-2,2,6,6-tetramethylpiperidin-4-yl]amino}-1,2,4-triazin-6-yl)-5-(1H-pyrazol-4-yl)pyridin-3-ol [Compound 139]",≤ 100 nM
3,"2-(6-{[(1R,3s,5S)-1,5-dimethyl-8-azabicyclo[3.2.1]octan-3-yl]oxy}pyridazin-3-yl)-5-(1H-1,2,3-triazol-1-yl)pyridin-3-ol and 2-(6-{[(1S,3r,5R)-1,5-dimethyl-8-azabicyclo[3.2.1]octan-3-yl]oxy}pyridazin-3-yl)-5-(1H-1,2,3-triazol-1-yl)pyridin-3-ol [Compound 71]",100 to 500 nM
4,"2-(6-{[(3R,4R)-3-fluoro-2,2,6,6-tetramethylpiperidin-4-yl]amino}pyridazin-3-yl)-5-[1-(^2H3)methyl-1H-pyrazol-4-yl]pyridin-3-ol or 2-(6-{[(3S,4S)-3-fluoro-2,2,6,6-tetramethylpiperidin-4-yl]amino}pyridazin-3-yl)-5-[1-(^2H3)methyl-1H-pyrazol-4-yl]pyridin-3-ol [Compound 19]",≤ 100 nM
5,"2-(6-{[(3R,4S)-3-fluoro-2,2,6,6-tetramethylpiperidin-4-yl]oxy}pyridazin-3-yl)-5-(1H-pyrazol-4-yl)pyridin-3-ol and 2-(6-{[(3S,4R)-3-fluoro-2,2,6,6-tetramethylpiperidin-4-yl]oxy}pyridazin-3-yl)-5-(1H-pyrazol-4-yl)pyridin-3-ol [Compound 6]",≤ 100 nM
6,"2-(6-{[(3R,4S)-3-fluoro-2,2,6,6-tetramethylpiperidin-4-yl]oxy}pyridazin-3-yl)-5-(2-methyl[1,2,4]triazolo[1,5-a]pyridin-6-yl)pyridin-3-ol and 2-(6-{[(3S,4R)-3-fluoro-2,2,6,6-tetramethylpiperidin-4-yl]oxy}pyridazin-3-yl)-5-(2-methyl[1,2,4]triazolo[1,5-a]pyridin-6-yl)pyridin-3-ol [Compound 55]",≤ 100 nM
7,"2-(6-{[(3R,4S)-3-fluoro-2,2,6,6-tetramethylpiperidin-4-yl]oxy}pyridazin-3-yl)-5-(2-methylimidazo[1,2-a]pyridin-6-yl)pyridin-3-ol and 2-(6-{[(3S,4R)-3-fluoro-2,2,6,6-tetramethylpiperidin-4-yl]oxy}pyridazin-3-yl)-5-(2-methylimidazo[1,2-a]pyridin-6-yl)pyridin-3-ol [Compound 43]",≤ 100 nM
8,"2-(6-{[(3R,4S)-3-fluoro-2,2,6,6-tetramethylpiperidin-4-yl]oxy}pyridazin-3-yl)-5-(2-methylimidazo[1,2-a]pyrimidin-6-yl)pyridin-3-ol and 2-(6-{[(3S,4R)-3-fluoro-2,2,6,6-tetramethylpiperidin-4-yl]oxy}pyridazin-3-yl)-5-(2-methylimidazo[1,2-a]pyrimidin-6-yl)pyridin-3-ol [Compound 54]",≤ 100 nM
9,"2-(6-{[(3R,4S)-3-fluoro-2,2,6,6-tetramethylpiperidin-4-yl]oxy}pyridazin-3-yl)-5-(2-methylimidazo[1,2-b]pyridazin-6-yl)pyridin-3-ol and 2-(6-{[(3S,4R)-3-fluoro-2,2,6,6-tetramethylpiperidin-4-yl]oxy}pyridazin-3-yl)-5-(2-methylimidazo[1,2-b]pyridazin-6-yl)pyridin-3-ol [Compound 48]",≤ 100 nM
10,"2-(6-{[(3R,4S)-3-fluoro-2,2,6,6-tetramethylpiperidin-4-yl]oxy}pyridazin-3-yl)-5-(4-methyl-1H-imidazol-1-yl)pyridin-3-ol and 2-(6-{[(3S,4R)-3-fluoro-2,2,6,6-tetramethylpiperidin-4-yl]oxy}pyridazin-3-yl)-5-(4-methyl-1H-imidazol-1-yl)pyridin-3-ol [Compound 41]",100 to 500 nM
11,"2-(6-{[(3R,4S)-3-fluoro-2,2,6,6-tetramethylpiperidin-4-yl]oxy}pyridazin-3-yl)-5-(imidazo[1,2-a]pyrazin-6-yl)pyridin-3-ol and 2-(6-{[(3S,4R)-3-fluoro-2,2,6,6-tetramethylpiperidin-4-yl]oxy}pyridazin-3-yl)-5-(imidazo[1,2-a]pyrazin-6-yl)pyridin-3-ol [Compound 66]",100 to 500 nM
12,"2-(6-{[(3R,4S)-3-fluoro-2,2,6,6-tetramethylpiperidin-4-yl]oxy}pyridazin-3-yl)-5-(imidazo[1,2-b]pyridazin-6-yl)pyridin-3-ol and 2-(6-{[(3S,4R)-3-fluoro-2,2,6,6-tetramethylpiperidin-4-yl]oxy}pyridazin-3-yl)-5-(imidazo[1,2-b]pyridazin-6-yl)pyridin-3-ol [Compound 49]",≤ 100 nM
13,"2-(6-{[(3R,4S)-3-fluoro-2,2,6,6-tetramethylpiperidin-4-yl]oxy}pyridazin-3-yl)-5-[2-methyl-8-(trifluoromethyl)imidazo[1,2-a]pyridin-6-yl]pyridin-3-ol and 2-(6-{[(3S,4R)-3-fluoro-2,2,6,6-tetramethylpiperidin-4-yl]oxy}pyridazin-3-yl)-5-[2-methyl-8-(trifluoromethyl)imidazo[1,2-a]pyridin-6-yl]pyridin-3-ol [Compound 46]",100 to 500 nM
14,"2-(6-{[(3S,4S)-3-fluoro-2,2,6,6-tetramethylpiperidin-4-yl]amino}pyridazin-3-yl)-5-(1H-pyrazol-3-yl)pyridin-3-ol and 2-(6-{[(3R,4R)-3-fluoro-2,2,6,6-tetramethylpiperidin-4-yl]amino}pyridazin-3-yl)-5-(1H-pyrazol-3-yl)pyridin-3-ol [Compound 16]",≤ 100 nM
15,"2-{3-[(3R)-3-(tert-butylamino)pyrrolidin-1-yl]-1,2,4-triazin-6-yl}-5-(2,8-dimethylimidazo[1,2-b]pyridazin-6-yl)pyridin-3-ol [Compound 149]",≤ 100 nM
16,2-{6-[(3R)-(tert-butylamino)pyrrolidin-1-yl]pyridazin-3-yl}-5-(1-methyl-1H-pyrazol-3-yl)pyridin-3-ol and 2-{6-[(3S)-(tert-butylamino)pyrrolidin-1-yl]pyridazin-3-yl}-5-(1-methyl-1H-pyrazol-3-yl)pyridin-3-ol [Compound 17],500 to 1000 nM
17,"2-{6-[(3R,5R)-3,5-dimethylpiperazin-1-yl]pyridazin-3-yl}-5-(7-fluoro-2-methyl-2H-indazol-5-yl)pyridin-3-ol and 2-{6-[(3S,5R)-3,5-dimethylpiperazin-1-yl]pyridazin-3-yl}-5-(7-fluoro-2-methyl-2H-indazol-5-yl)pyridin-3-ol [Compound 106]",≤ 100 nM
18,2-{6-[(3S)-3-(propan-2-yl)piperazin-1-yl]pyridazin-3-yl}-5-(1H-pyrazol-4-yl)pyridin-3-ol and 2-{6-[(3R)-3-(propan-2-yl)piperazin-1-yl]pyridazin-3-yl}-5-(1H-pyrazol-4-yl)pyridin-3-ol [Compound 121],≤ 100 nM
19,"5-(1H-pyrazol-4-yl)-2-{6-[(3R,5S)-3,4,5-trimethylpiperazin-1-yl]pyridazin-3-yl}pyridin-3-ol and 5-(1H-pyrazol-4-yl)-2-{6-[(3S,5R)-3,4,5-trimethylpiperazin-1-yl]pyridazin-3-yl}pyridin-3-ol [Compound 90]",100 to 500 nM
20,"5-(2,4-dimethyl-1,3-benzoxazol-6-yl)-2-(6-{[(3R,4S)-3-fluoro-2,2,6,6-tetramethylpiperidin-4-yl]oxy}pyridazin-3-yl)pyridin-3-ol and 5-(2,4-dimethyl-1,3-benzoxazol-6-yl)-2-(6-{[(3S,4R)-3-fluoro-2,2,6,6-tetramethylpiperidin-4-yl]oxy}pyridazin-3-yl)pyridin-3-ol [Compound 56]",≤ 100 nM
21,"5-(2,8-dimethylimidazo[1,2-a]pyridin-6-yl)-2-(6-{[(3R,4S)-3-fluoro-2,2,6,6-tetramethylpiperidin-4-yl]oxy}pyridazin-3-yl)pyridin-3-ol and 5-(2,8-dimethylimidazo[1,2-a]pyridin-6-yl)-2-(6-{[(3S,4R)-3-fluoro-2,2,6,6-tetramethylpiperidin-4-yl]oxy}pyridazin-3-yl)pyridin-3-ol [Compound 44]",≤ 100 nM
22,"5-(2,8-dimethylimidazo[1,2-b]pyridazin-6-yl)-2-(6-{[(3R,4S)-3-fluoro-2,2,6,6-tetramethylpiperidin-4-yl]oxy}pyridazin-3-yl)pyridin-3-ol and 5-(2,8-dimethylimidazo[1,2-b]pyridazin-6-yl)-2-(6-{[(3S,4R)-3-fluoro-2,2,6,6-tetramethylpiperidin-4-yl]oxy}pyridazin-3-yl)pyridin-3-ol [Compound 47]",≤ 100 nM
